In patent US8354403B2, “Pyrrolidine derived beta 3 adrenergic receptor agonists” (Merck Sharp & Dohme Corp., priority 2009, dated 2013):

Each compound was assayed against T1, human β3 adrenergic receptor (Homo sapiens, UniProt P13945) (assay: Beta-3 agonist in vitro functional assay: cAMP production (LANCE TR-FRET) in CHO cells stably transfected with the cloned β3 receptor). Details: Human β3 agonist functional activity.
T1 construct: expressed in transfected cells; host or cells: Chinese hamster ovary (CHO) cells, stably transfected
T1 sequence (P13945 whole entry): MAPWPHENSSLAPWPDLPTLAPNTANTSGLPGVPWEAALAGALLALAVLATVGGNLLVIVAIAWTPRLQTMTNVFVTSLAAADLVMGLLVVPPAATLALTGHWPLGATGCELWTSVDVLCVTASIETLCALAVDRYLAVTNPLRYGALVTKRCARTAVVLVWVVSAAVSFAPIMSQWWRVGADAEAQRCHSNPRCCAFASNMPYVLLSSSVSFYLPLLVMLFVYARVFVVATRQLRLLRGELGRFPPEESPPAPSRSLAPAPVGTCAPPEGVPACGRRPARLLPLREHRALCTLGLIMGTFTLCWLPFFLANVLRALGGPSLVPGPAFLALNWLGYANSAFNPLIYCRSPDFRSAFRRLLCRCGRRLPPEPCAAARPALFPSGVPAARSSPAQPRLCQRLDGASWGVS
Format: cell-based
Protocol: Chinese hamster ovary (CHO) cells, stably transfected with the cloned β-adrenergic receptor (β1, β2 or β3) are harvested after 3 days of subculturing. Harvesting of cells is done with Enzyme-free Dissociation Media (Specialty Media). Cells are then counted and resuspended in assay buffer (Hank's Balanced salt solution supplemented with 5 mM HEPES, […]) containing a phosphodiesterase inhibitor (IBMX, 0.6 mM). The reaction is initiated by mixing 6,000 cells in 6 μL with 6 μL Alexa Fluor labeled cAMP antibody (LANCE™ kit) which is then added to an assay well containing 12 μL of compound (diluted in assay buffer to 2× final concentration). The reaction proceeds for 30 minutes at RT and is terminated by the addition of 24 ul detection buffer (LANCE™ kit). The assay plate is then incubated for 1 h at RT and time-resolved fluorescence measured on a Perkin Elmer Envision reader or equivalent. The unknown cAMP level is determined by comparing fluorescence levels to a cAMP standard curve.
The non-selective, full agonist β-adrenergic ligand isoproterenol is used at all three receptors to determine maximal stimulation. […] Data are analyzed using Microsoft Excel and Graphpad Prism or an internally developed data analysis software package.

SMILES	EC50
O=C(c1ccc(C[C@@H]2CC[C@H]([C@H](O)c3ccccc3)N2)cc1)N1CCc2c(O)noc2C1 [Example 54]	100 to 999 nM

Same assay, conditions: Table 4; cAMP, CHO cells; read-out: Human β3 agonist functional activity

SMILES	EC50
O=C(c1ccc(C[C@@H]2CC[C@H]([C@H](O)c3ccccc3)N2)cc1)N1CC(Oc2cncc(Cl)n2)C1 [Example 3]	100 to 999 nM
NC(=O)C1(F)CN(C(=O)c2ccc(C[C@@H]3CC[C@H]([C@H](O)c4ccccc4)N3)cc2)C1 [Example 4]	100 to 999 nM
O=C(OCc1ccccc1)N1CC2(C1)CN(C(=O)c1ccc(C[C@@H]3CC[C@H]([C@H](O)c4ccccc4)N3)cc1)C2 [Example 5]	100 to 999 nM
CCOC(=O)C1CCN(C(=O)c2ccc(C[C@@H]3CC[C@H]([C@H](O)c4ccccc4)N3)cc2)C1 (some centres unmarked) [Example 6]	100 to 999 nM
CO[C@@H]1CCN(C(=O)c2ccc(C[C@@H]3CC[C@H]([C@H](O)c4ccccc4)N3)cc2)C1 [Example 7]	100 to 999 nM
CO[C@H]1CCN(C(=O)c2ccc(C[C@@H]3CC[C@H]([C@H](O)c4ccccc4)N3)cc2)C1 [Example 8]	100 to 999 nM
CN(C)C1CCN(C(=O)c2ccc(C[C@@H]3CC[C@H]([C@H](O)c4ccccc4)N3)cc2)C1 (some centres unmarked) [Example 9]	100 to 999 nM
Cc1noc(C2CCN(C(=O)c3ccc(C[C@@H]4CC[C@H]([C@H](O)c5ccccc5)N4)cc3)C2)n1 (some centres unmarked) [Example 11]	100 to 999 nM
CC1(O)CCN(C(=O)c2ccc(C[C@@H]3CC[C@H]([C@H](O)c4ccccc4)N3)cc2)C1 (some centres unmarked) [Example 12]	100 to 999 nM
O=C(c1ccc(C[C@@H]2CC[C@H]([C@H](O)c3ccccc3)N2)cc1)N1CCC2(CCOC2=O)C1 (some centres unmarked) [Example 13]	10 to 99.9 nM
Cc1nonc1C1CCCN1C(=O)c1ccc(C[C@@H]2CC[C@H]([C@H](O)c3ccccc3)N2)cc1 (some centres unmarked) [Example 14]	100 to 999 nM
O=C(c1ccc(C[C@@H]2CC[C@H]([C@H](O)c3ccccc3)N2)cc1)N1CCCC1c1nccs1 (some centres unmarked) [Example 15]	100 to 999 nM
O=C(c1ccc(C[C@@H]2CC[C@H]([C@H](O)c3cccnc3)N2)cc1)N1CCCC1c1ccccc1F (some centres unmarked) [Example 16]	100 to 999 nM
O=C(c1ccc(C[C@@H]2CC[C@H]([C@H](O)c3ccccc3)N2)cc1)N1CC2CN(Cc3ccccn3)CC2C1 (some centres unmarked) [Example 17]	100 to 999 nM
O=C(c1ccc(C[C@@H]2CC[C@H]([C@H](O)c3ccccc3)N2)cc1)N1CC2CC(n3ncnn3)CC2C1 (some centres unmarked) [Example 19]	10 to 99.9 nM
O=C(c1ccc(C[C@@H]2CC[C@H]([C@H](O)c3ccccc3)N2)cc1)N1CC2CC(n3nccn3)CC2C1 (some centres unmarked) [Example 20]	10 to 99.9 nM
O=C(c1ccc(C[C@@H]2CC[C@H]([C@H](O)c3ccccc3)N2)cc1)N1CC2CC(n3ccnn3)CC2C1 (some centres unmarked) [Example 21]	10 to 99.9 nM
O=C(c1ccc(C[C@@H]2CC[C@H]([C@H](O)c3ccccc3)N2)cc1)N1CC2CC(n3cncn3)CC2C1 (some centres unmarked) [Example 22]	100 to 999 nM
O=C(c1ccc(C[C@@H]2CC[C@H]([C@H](O)c3ccccc3)N2)cc1)N1CC2CC(n3cnnn3)CC2C1 (some centres unmarked) [Example 23]	10 to 99.9 nM
O=C(c1ccc(C[C@@H]2CC[C@H]([C@H](O)c3ccccc3)N2)cc1)N1CC2CCNC2C1 (some centres unmarked) [Example 24]	100 to 999 nM
O=C(c1ccc(C[C@@H]2CC[C@H]([C@H](O)c3ccccc3)N2)cc1)N1Cc2cncnc2C1 [Example 25]	100 to 999 nM
O=C(c1ccc(C[C@@H]2CC[C@H]([C@H](O)c3ccccc3)N2)cc1)N1Cc2cocc2C1 [Example 26]	10 to 99.9 nM
O=C(c1ccc(C[C@@H]2CC[C@H]([C@H](O)c3ccccc3)N2)cc1)N1Cc2c[nH]nc2C1 [Example 27]	10 to 99.9 nM
Cn1ncc2c1CN(C(=O)c1ccc(C[C@@H]3CC[C@H]([C@H](O)c4ccccc4)N3)cc1)C2 [Example 28]	100 to 999 nM
CCS(=O)(=O)n1cc2c(n1)CN(C(=O)c1ccc(C[C@@H]3CC[C@H]([C@H](O)c4ccccc4)N3)cc1)C2 [Example 29]	100 to 999 nM
O=C(c1ccc(C[C@@H]2CC[C@H]([C@H](O)c3ccccc3)N2)cc1)N1Cc2cnn(C(F)(F)F)c2C1 [Example 30]	100 to 999 nM
CCOC(=O)C1CCCN(C(=O)c2ccc(C[C@@H]3CC[C@H]([C@H](O)c4ccccc4)N3)cc2)C1 (some centres unmarked) [Example 31]	10 to 99.9 nM

SMILES	EC50
O=C(OCc1ccccc1)C1CCCN(C(=O)c2ccc(C[C@@H]3CC[C@H]([C@H](O)c4ccccc4)N3)cc2)C1 (some centres unmarked) [Example 32]	10 to 99.9 nM
O=C(c1ccc(C[C@@H]2CC[C@H]([C@H](O)c3ccccc3)N2)cc1)N1CCCC(c2nc3ccccc3o2)C1 (some centres unmarked) [Example 33]	100 to 999 nM
O=C(c1ccc(C[C@@H]2CC[C@H]([C@H](O)c3ccccc3)N2)cc1)N1CCCC(c2nc3ccccc3[nH]2)C1 (some centres unmarked) [Example 34]	100 to 999 nM
CCOC(=O)C1(S(C)(=O)=O)CCCN(C(=O)c2ccc(C[C@@H]3CC[C@H]([C@H](O)c4ccccc4)N3)cc2)C1 (some centres unmarked) [Example 36]	10 to 99.9 nM
CCOC(=O)C1(F)CCCN(C(=O)c2ccc(C[C@@H]3CC[C@H]([C@H](O)c4ccccc4)N3)cc2)C1 (some centres unmarked) [Example 37]	100 to 999 nM
O=C(c1ccc(C[C@@H]2CC[C@H]([C@H](O)c3ccccc3)N2)cc1)N1CCCC(S(=O)(=O)c2ncc(Br)s2)C1 (some centres unmarked) [Example 38]	10 to 99.9 nM
O=C(c1ccc(C[C@@H]2CC[C@H]([C@H](O)c3ccccc3)N2)cc1)N1CCCC2(CCCNC2=O)C1 (some centres unmarked) [Example 39]	100 to 999 nM
O=C(c1ccc(C[C@@H]2CC[C@H]([C@H](O)c3ccccc3)N2)cc1)N1CCCC2(CCOC2=O)C1 (some centres unmarked) [Example 40]	10 to 99.9 nM
CC1(C)CC2(CCCN(C(=O)c3ccc(C[C@@H]4CC[C@H]([C@H](O)c5ccccc5)N4)cc3)C2)C(=O)O1 (some centres unmarked) [Example 41]	10 to 99.9 nM
COc1ccc2c(c1)C(=O)CC1(CCCN(C(=O)c3ccc(C[C@@H]4CC[C@H]([C@H](O)c5cccnc5)N4)cc3)C1)O2 (some centres unmarked) [Example 42]	100 to 999 nM
COc1ccc2c(c1)C(=O)CC1(CCCN(C(=O)c3ccc(C[C@@H]4CC[C@H]([C@H](O)c5ccccc5)N4)cc3)C1)O2 (some centres unmarked) [Example 43]	10 to 99.9 nM
O=C(c1ccc(C[C@@H]2CC[C@H]([C@H](O)c3ccccc3)N2)cc1)N1CCCC2(CCc3cc(F)ccc3O2)C1 (some centres unmarked) [Example 44]	100 to 999 nM
CCOC(=O)C1CCCCN1C(=O)c1ccc(C[C@@H]2CC[C@H]([C@H](O)c3ccccc3)N2)cc1 (some centres unmarked) [Example 48]	100 to 999 nM
Cc1noc(C2CCCCN2C(=O)c2ccc(C[C@@H]3CC[C@H]([C@H](O)c4ccccc4)N3)cc2)n1 (some centres unmarked) [Example 49]	999 to 3000 nM
O=C(c1ccc(C[C@@H]2CC[C@H]([C@H](O)c3ccccc3)N2)cc1)N1CCCCC1c1nccs1 (some centres unmarked) [Example 50]	100 to 999 nM
Cn1ccnc1C1CCCCN1C(=O)c1ccc(C[C@@H]2CC[C@H]([C@H](O)c3ccccc3)N2)cc1 (some centres unmarked) [Example 51]	100 to 999 nM
Cc1nc2c(s1)CCN(C(=O)c1ccc(C[C@@H]3CC[C@H]([C@H](O)c4ccccc4)N3)cc1)C2 [Example 52]	100 to 999 nM
O=C(c1ccc(C[C@@H]2CC[C@H]([C@H](O)c3ccccc3)N2)cc1)N1CCc2onc(O)c2C1 [Example 53]	999 to 3000 nM
O=C(c1ccc(C[C@@H]2CC[C@H]([C@H](O)c3ccccc3)N2)cc1)N1CCc2oncc2C1 [Example 55]	100 to 999 nM
O=C(c1ccc(C[C@@H]2CC[C@H]([C@H](O)c3ccccc3)N2)cc1)N1CCC2c3ccccc3OC2C1 (some centres unmarked) [Example 56]	1 to 9.9 nM
O=C(c1ccc(C[C@@H]2CC[C@H]([C@H](O)c3cccnc3)N2)cc1)N1CCC2c3ccccc3OC2C1 (some centres unmarked) [Example 57]	1 to 9.9 nM
O=C(c1ccc(C[C@@H]2CC[C@H]([C@H](O)c3ccccc3)N2)cc1)N1CCC2c3cccnc3OC2C1 (some centres unmarked) [Example 58]	10 to 99.9 nM
O=C(c1ccc(C[C@@H]2CC[C@H]([C@H](O)c3cccnc3)N2)cc1)N1CCC2Oc3ccccc3OC2C1 (some centres unmarked) [Example 59]	10 to 99.9 nM
C[C@@H]1CN(C(=O)c2ccc(C[C@@H]3CC[C@H]([C@H](O)c4ccccc4)N3)cc2)CC[C@@H]1n1cccn1 [Example 60]	10 to 99.9 nM
C[C@@H]1CN(C(=O)c2ccc(C[C@@H]3CC[C@H]([C@H](O)c4ccccc4)N3)cc2)CC[C@H]1n1cccn1 [Example 61]	100 to 999 nM
C[C@H]1CN(C(=O)c2ccc(C[C@@H]3CC[C@H]([C@H](O)c4ccccc4)N3)cc2)CC[C@@H]1n1cccn1 [Example 62]	100 to 999 nM
O=C(c1ccc(C[C@@H]2CC[C@H]([C@H](O)c3ccccc3)N2)cc1)N1CC2CCC(C1)C2n1cnnn1 (some centres unmarked) [Example 63]	1 to 9.9 nM

Same assay, conditions: Table 5; cAMP, CHO cells; read-out: Human β3 agonist functional activity

SMILES	EC50
O=C(c1ccc(C[C@@H]2CC[C@H]([C@H](O)c3ccccc3)N2)cc1)N1CCCCC1 [Example 67]	100 to 999 nM

Same assay, conditions: given as a range; cAMP, CHO cells; read-out: human β3 functional activity

SMILES	EC50
O=C(c1ccc(C[C@@H]2CC[C@H]([C@H](O)c3ccccc3)N2)cc1)N1CCC(n2cccn2)CC1 [Example 64, (R)-phenyl[(2R,5S)-5-(4-{[4-(1H-pyrazol-1-yl)-piperidin-1-yl]carbonyl}benzyl)pyrrolidine-2-yl]methanol]	10 to 99.9 nM
O=C(c1ccc(C[C@@H]2CC[C@H]([C@H](O)c3cccnc3)N2)cc1)N1CCC(n2cccn2)CC1 [Example 65, (R)-[(2R,5S)-5-(4-{[4-(1H-pyrazol-1-yl)-piperidin-1-yl]carbonyl}benzyl)pyrrolidine-2-yl](pyridin-3-yl)methanol]	100 to 999 nM
O=C(c1ccc(C[C@@H]2CC[C@H]([C@H](O)c3ccccc3)N2)cc1)N1CCC(c2cscn2)CC1 [Example 66, (R)-phenyl[(2R,5S)-5-(4-{[4-(1,3-thiazol-4-yl)-piperidin-1-yl]carbonyl}benzyl)pyrrolidine-2-yl]methanol]	10 to 99.9 nM
